In US10934263B2, “Charged ion channel blockers and methods for use” (Nocion Therapeutics, Inc., priority 2019, dated 2021):

Legend:
[1] = target: T1, NaV1.7 (Homo sapiens, UniProt Q15858); test: Whole cell patch clamp, internal block of NaV1.7 current (compound in internal solution); assay type: cell-based; conditions: compound applied internally, manual patch clamp, read-out: Nav1.7 Intracellular Inhibition
T1 construct: expressed in transfected cells; tetracycline-inducible, kept under hygromycin and blasticidin
Procedure: Representative compounds of the invention were synthesized according to the described methods and tested for the ability to inhibit voltage-gated sodium channels.
NaV1.7 was expressed upon induction with tetracycline. Cells were cultured in DMEM containing 10% dialyzed Fetal Bovine Serum (VWR, Radnor, Pa.), 1% Glutamax (VWR, Radnor, Pa.), 1% Penicillin-Streptomycin (VWR, Radnor, Pa.), 100 mg/L Hygromycin (Thermo Fisher Scientific, Waltham, Mass. and 5 mg/L Blasticidin (Alfa Aesar, Haverhill, Mass.). Cells were grown and maintained at 37° C. in a humidified environment containing 10% CO2 in air. Cells were detached from the culture flask for passage and harvested using 0.05% Trypsin-EDTA (Thermo Fisher Scientific, Waltham, Mass.). To induce NaV1.7, cells were induced with tetracycline (0.1-1 μg/mL, IBI Scientific, Peosta, Iowa) the day before recording and plated onto 24-well plates. Cells were washed with DPBS (VWR, Radnor, Pa.), trypsinized and then triturated five times in 10 mL of growth media to break apart cell aggregates. For one 24-well plate, 2 mL of cell suspension was mixed with 23 mL of fresh growth media and 0.1-1 μg/mL tetracycline added. 1 ml of mixed media with cells was then added to each well of a 24-well plate, with a 12 mm coverslip already placed in the bottom of the well. Cells were then incubated in 37° C. and 10% CO2 overnight.
The intracellular solution contained the following (in mM) CsCl 135, NaCl 10, EGTA 10, HEPES 10, MgCl2 2, adjusted to pH 7.2 with CsOH. The external solution was a normal Ringer solution containing (in mM) NaCl 155, HEPES 10, glucose 10, KCl 3.5, CaCl2 1.5, MgCl2 1 adjusted to pH 7.4 with NaOH. CsCl is from Alfa Aesar, Haverhill, Mass. All other chemicals are from Sigma-Aldrich, St. Louis, Mo. In order to test the degree of internal block by test compounds the compounds were dissolved in internal solution at the indicated test concentration. […] In order to test the degree of external block by test compounds the compounds were dissolved in external solution at the indicated test concentration.
18-24 hours after cells were induced with tetracycline, coverslips were placed into a chamber filled with Normal Ringer solution at room temperature and the chamber placed on a microscope. Pipettes were pulled from borosilicate glass on a P97 puller (Sutter Instrument, Novato, Calif.) and polished with a MF-830 Microforge (Narishige International USA, Inc, Amityville, N.Y.) to have a resistance of 1.5-2.5 MΩ when filled with CsCl internal solution at room temperature. Healthy cells (those that are round and translucent with no visible blemishes) were chosen for seal formation. A seal was formed between the pipette and the cell, and a brief pulse of suction was used to “break in” and establish the whole-cell configuration. The membrane potential was held at −100 mV before the voltage protocol began. Only cells with series resistance between 1.5-5 MΩ were retained for analysis. The voltage protocol was as follows: Cells were held at −100 mV for 12 ms followed by a hyperpolarizing step to −105 mV for 12 ms to monitor the leak. Cells were then stepped back to −100 mV for 40 ms. Cells were then depolarized to −20 mV for 10 ms and then returned to −100 mV for 26 ms.
Once the recording was started, the voltage protocol was run at 30 second intervals for 5 minutes to get a stable baseline. This was followed by four 30-second periods of 5 Hz stimulation of the same voltage protocol separated by 1 minute of rest which was then followed by 0.33 Hz stimulation after the last train. Currents were recorded using PatchMaster software with Heka EPC10 (HEKA Electronics, Lambrecht, Germany). Only cells with inward current amplitudes at −20 mV between 400 pA and 4 nA were accepted. In addition, cells having leak currents greater than 10% of their current amplitudes were discarded. […]

[2] = PAMPA membrane permeability assay; assay type: in vitro ADME; conditions: PAMPA permeability coefficient, GIT lipid, buffer pH 7.4, 4 hours incubation
Procedure: The PAMPA assay (pION, Inc., Woburn Mass.) was used to determine the ability of compounds of the invention to cross an artificial lipid membrane by passive diffusion. Test compounds were dissolved in DMSO (10 mM) and diluted 200-fold in buffer (pION Inc., pH 7.4) to provide 50 uM stock solutions. Buffer (150 μL) was added to a UV blank plate and stock solutions (150 μL) were transferred to a UV reference plate. The blank and reference spectrum were read using a spectrophotometer. Stock solutions (200 μL) were added to the donor plate of the PAMPA sandwich plate and an accept plate painted with GIT lipid (pION Inc, 5 μL) was placed on top. Buffer (200 μL) was added to the acceptor plate and the PAMPA sandwich plate was incubated for 4 hours. Aliquots (150 μL) from the acceptor plate were added to a UV plate and read as acceptor spectrum. Aliquots (150 μL) of the donor solutions were added to a UV analysis plate and read as donor spectrum. The permeability coefficient of test compounds was calculated using PAMPA Explorer™ software (version 3.5.0.4) based on the AUC of the reference plate, the donor plate, and the acceptor plate.

T1 sequence (Q15858 whole entry): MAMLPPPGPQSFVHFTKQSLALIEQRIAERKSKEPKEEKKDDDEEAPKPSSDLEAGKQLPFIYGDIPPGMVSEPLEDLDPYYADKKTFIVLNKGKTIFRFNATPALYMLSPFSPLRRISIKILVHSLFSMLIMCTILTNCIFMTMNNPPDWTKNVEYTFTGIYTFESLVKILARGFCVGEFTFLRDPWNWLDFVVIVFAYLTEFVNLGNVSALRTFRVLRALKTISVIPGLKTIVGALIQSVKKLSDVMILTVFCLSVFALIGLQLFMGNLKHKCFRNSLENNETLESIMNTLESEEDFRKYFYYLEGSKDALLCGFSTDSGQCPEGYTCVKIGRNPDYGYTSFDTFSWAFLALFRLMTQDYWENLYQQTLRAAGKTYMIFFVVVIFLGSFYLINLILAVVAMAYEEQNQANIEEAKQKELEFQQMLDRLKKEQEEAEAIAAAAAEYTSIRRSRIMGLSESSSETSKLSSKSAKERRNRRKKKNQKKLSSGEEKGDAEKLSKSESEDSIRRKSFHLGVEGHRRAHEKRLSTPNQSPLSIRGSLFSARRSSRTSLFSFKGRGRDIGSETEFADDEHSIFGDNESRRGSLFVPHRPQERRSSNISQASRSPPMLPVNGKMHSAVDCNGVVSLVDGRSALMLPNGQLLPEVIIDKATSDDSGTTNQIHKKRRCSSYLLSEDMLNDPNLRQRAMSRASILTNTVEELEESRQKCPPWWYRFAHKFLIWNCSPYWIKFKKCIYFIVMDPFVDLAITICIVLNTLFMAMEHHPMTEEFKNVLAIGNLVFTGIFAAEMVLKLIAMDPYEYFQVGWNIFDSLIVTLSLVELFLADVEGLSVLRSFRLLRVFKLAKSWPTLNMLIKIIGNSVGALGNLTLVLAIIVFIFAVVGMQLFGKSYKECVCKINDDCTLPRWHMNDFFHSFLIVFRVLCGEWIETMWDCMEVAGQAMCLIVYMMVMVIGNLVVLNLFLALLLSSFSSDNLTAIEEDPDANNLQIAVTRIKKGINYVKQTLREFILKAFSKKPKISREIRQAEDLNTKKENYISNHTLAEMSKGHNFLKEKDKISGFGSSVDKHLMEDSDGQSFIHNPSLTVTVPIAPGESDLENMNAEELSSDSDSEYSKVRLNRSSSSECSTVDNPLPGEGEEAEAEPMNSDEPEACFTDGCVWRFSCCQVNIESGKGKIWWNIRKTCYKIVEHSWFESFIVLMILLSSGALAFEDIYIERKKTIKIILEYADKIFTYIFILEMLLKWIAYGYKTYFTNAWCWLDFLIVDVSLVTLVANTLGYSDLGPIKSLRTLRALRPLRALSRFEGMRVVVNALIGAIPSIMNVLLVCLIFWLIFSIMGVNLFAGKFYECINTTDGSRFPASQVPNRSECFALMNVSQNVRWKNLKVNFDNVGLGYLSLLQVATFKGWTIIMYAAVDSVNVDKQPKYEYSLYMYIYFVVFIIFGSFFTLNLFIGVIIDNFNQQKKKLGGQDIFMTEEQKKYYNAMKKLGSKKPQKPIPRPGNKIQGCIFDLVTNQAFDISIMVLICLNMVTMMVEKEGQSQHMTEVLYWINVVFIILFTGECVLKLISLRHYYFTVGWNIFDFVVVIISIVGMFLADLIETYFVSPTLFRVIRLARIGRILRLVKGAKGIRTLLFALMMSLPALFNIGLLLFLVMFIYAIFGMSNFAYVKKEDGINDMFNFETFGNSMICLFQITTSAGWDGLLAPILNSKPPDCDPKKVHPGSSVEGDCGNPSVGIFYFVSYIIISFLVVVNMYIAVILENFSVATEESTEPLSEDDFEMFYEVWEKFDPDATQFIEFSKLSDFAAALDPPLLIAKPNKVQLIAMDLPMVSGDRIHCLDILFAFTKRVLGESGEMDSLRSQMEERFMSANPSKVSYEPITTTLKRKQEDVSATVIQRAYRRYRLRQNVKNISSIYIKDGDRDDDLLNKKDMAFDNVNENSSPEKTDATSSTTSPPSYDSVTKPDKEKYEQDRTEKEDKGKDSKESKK

SMILES	inhibition at 32 µM [1] [%]	PAMPA (10^−6 cm/s) [2]	inhibition at 10 µM [1] [%]
Cc1cccc(C)c1NC(=O)C[n+]1ccccc1.[Br-] [Compound 1A, 1-(2-((2,6-dimethylphenyl)amino)-2-oxoethyl) pyridin-1-ium bromide]	70 to 95	++ (0.1-2.0 10^−6 cm/s)	–
Cc1cccc(C)c1NC(=O)C[n+]1ccn(C)c1.[Br-] [Compound 2A, 3-(2-((2,6-dimethylphenyl)amino)-2-oxoethyl)-1-methyl-1H-imidazol-3-ium bromide]	40 to 70	+ (<0.1 10^−6 cm/s)	–
CCC(C(=O)Nc1c(C)cccc1C)[n+]1ccccc1.[Br-] (stereo not shown) [Compound 3A, 1-(1-((2,6-dimethylphenyl)amino)-1-oxobutan-2-yl)pyridin-1-ium bromide]	70 to 95	++ (0.1-2.0 10^−6 cm/s)	–
CCC(C(=O)Nc1c(C)cccc1C)[n+]1ccn(C)c1.[Br-] (stereo not shown) [Compound 4A, 3-(1-((2,6-dimethylphenyl)amino)-1-oxobutan-2-yl)-1-methyl-1H-imidazol-3-ium bromide]	40 to 70	+ (<0.1 10^−6 cm/s)	–
Cc1cccc(C)c1NC(=O)C[n+]1ccccc1C.[Br-] [Compound 5A, 1-(2-((2,6-dimethylphenyl)amino)-2-oxoethyl)-2-methylpyridin-1-ium bromide]	70 to 95	+ (<0.1 10^−6 cm/s)	–
Cc1cc(F)cc(C)c1NC(=O)C[n+]1ccccc1.[Br-] [Compound 7A, 1-(2-((4-fluoro-2,6-dimethylphenyl)amino)-2-oxoethyl) pyridin-1-ium bromide]	< 40	+ (<0.1 10^−6 cm/s)	–
Cc1cc(C)c(NC(=O)C[n+]2ccccc2)c(C)c1.[Br-] [Compound 8A, 1-(2-(mesitylamino)-2-oxoethyl)pyridin-1-ium bromide]	< 40	+ (<0.1 10^−6 cm/s)	–
Cc1cc(Cl)cc(C)c1NC(=O)C[n+]1ccccc1.[Br-] [Compound 9A, 1-(2-((4-chloro-2,6-dimethylphenyl)amino)-2-oxoethyl) pyridin-1-ium bromide]	< 40	+ (<0.1 10^−6 cm/s)	–
COc1cc(C)c(NC(=O)C[n+]2ccccc2)c(C)c1.[Br-] [Compound 10A, 1-(2-((4-methoxy-2,6-dimethylphenyl)amino)-2-oxoethyl) pyridin-1-ium bromide]	< 40	+ (<0.1 10^−6 cm/s)	–
Cc1cc(C#N)cc(C)c1NC(=O)C[n+]1ccccc1.[Br-] [Compound 11A, 1-(2-((4-cyano-2,6-dimethylphenyl)amino)-2-oxoethyl) pyridin-1-ium bromide]	< 40	+ (<0.1 10^−6 cm/s)	–
Cc1cccc(C)c1NC(=O)C[n+]1ccc(-c2ccccc2)cc1.[Br-] [Compound 14A]	< 40	+ (<0.1 10^−6 cm/s)	–
Cc1cccc(C)c1NC(=O)C[n+]1ccc2ccccc2c1.[Br-] [Compound 15A]	> 95	++ (0.1-2.0 10^−6 cm/s)	–
Cc1cccc(C)c1NC(=O)C[n+]1cccc2ccccc21.[Br-] [Compound 18A]	> 95	+ (<0.1 10^−6 cm/s)	–
CCc1cc[n+](CC(=O)Nc2c(C)cccc2C)cc1 [Compound 19A]	70 to 95	–	–
Cc1cccc(C)c1NC(=O)C[n+]1cccc(C2CCCCC2)c1 [Compound 20A]	70 to 95	–	–
Cc1cccc(C)c1NC(=O)C[n+]1cccc(C2CCCC2)c1.[Br-] [Compound 21A]	> 95	+ (<0.1 10^−6 cm/s)	–
Cc1cccc(C)c1NC(=O)C[n+]1c(C)ccc(-c2ccccc2)c1C.[Br-] [Compound 23A]	> 95	+ (<0.1 10^−6 cm/s)	–
Cc1cccc(C)c1NC(=O)C[n+]1cc(-c2ccccc2)n(C)c1.[Br-] [Compound 24A]	70 to 95	+ (<0.1 10^−6 cm/s)	–
Cc1cccc(C)c1NC(=O)C[n+]1cccn1CC(C)C.[Br-] [Compound 27A]	–	+ (<0.1 10^−6 cm/s)	–
Cc1cccc(C)c1NC(=O)C[n+]1cccn1C1CCCCC1.[Br-] [Compound 28A]	–	+ (<0.1 10^−6 cm/s)	–

SMILES	inhibition at 32 µM [1] [%]	PAMPA (10^−6 cm/s) [2]	inhibition at 10 µM [1] [%]
CCNC(=O)Cn1ccc[n+]1CC(=O)Nc1c(C)cccc1C.[Br-] [Compound 30A, 2-(2-((2,6-dimethylphenyl)amino)-2-oxoethyl)-1-(2-(ethylamino)-2-oxoethyl)-1H-pyrazol-2-ium bromide]	–	++ (0.1-2.0 10^−6 cm/s)	–
Cc1cccc(C)c1NC(=O)C[n+]1cccc(C(C)C)c1 [Compound 31A]	–	–	70 to 95
Cc1cccc(C)c1NC(=O)C[n+]1cc2ccccn2c1 [Compound 35]	–	–	40 to 70
Cc1cccc(C)c1NC(=O)C[n+]1ccn(C(C)(C)C)c1 [Compound 36]	–	+ (<0.1 10^−6 cm/s)	70 to 95
Cc1cccc(C)c1NC(=O)C[n+]1ccn(-c2ccccc2)c1 [Compound 37]	–	–	70 to 95
Cc1cccc(C)c1NC(=O)C[n+]1ccn(Cc2ccccc2)c1 [Compound 38]	–	–	70 to 95
Cc1ccc[n+](CC(=O)Nc2c(C)cccc2C)c1 [Compound 39]	–	–	70 to 95
Cc1cccc(C)c1NC(=O)C[n+]1cccc(C(=O)N(C)C)c1 [Compound 41]	–	+ (<0.1 10^−6 cm/s)	40 to 70
Cc1cccc(C)c1NC(=O)C[n+]1cccc(O)c1 [Compound 42]	–	–	< 40
COc1ccc[n+](CC(=O)Nc2c(C)cccc2C)c1 [Compound 43]	–	–	70 to 95
Cc1cccc(C)c1NC(=O)C[n+]1cccc(F)c1 [Compound 44]	–	–	70 to 95
Cc1cccc(C)c1NC(=O)C[n+]1cccc(Cl)c1 [Compound 45]	–	–	70 to 95
CC(=O)Nc1ccc[n+](CC(=O)Nc2c(C)cccc2C)c1 [Compound 48]	–	+ (<0.1 10^−6 cm/s)	> 95
Cc1cccc(C)c1NC(=O)C[n+]1cccc(C#N)c1 [Compound 52]	–	–	70 to 95
Cc1cccc(C)c1NC(=O)C[n+]1ccnc(C)c1C [Compound 55]	–	–	40 to 70
CCCn1cc[n+](CC(=O)Nc2c(C)cccc2C)c1 [Compound 57]	–	–	70 to 95
CCOC(=O)c1c[n+](CC(=O)Nc2c(C)cccc2C)cn1C [Compound 61]	–	–	40 to 70
Cc1cccc(C)c1NC(=O)C[n+]1ccn(-c2ccc(Cl)cc2)c1 [Compound 64]	–	++ (0.1-2.0 10^−6 cm/s)	–
Cc1cccc(C)c1OC(=O)C[n+]1cccn1C1CCCCC1 [Compound 111]	–	–	> 95
